Entries after “also recorded” stand apart in the source; their conditions may differ.

One data set has as its system arNOX. The note with it: cited from earlier work.
In a further data set the test system is apoBNOX. Briefly: superoxide dismutase-resistant apoBNOX activity by ferricytochrome c reduction. It is filed as biochemical. The note with it: for inhibition of apoBNOX: apoBNOX associated with lipoprotein particles. Here is the method:
Reduction of ferricytochrome c by superoxide was employed as the measure of superoxide dismutase-resistant apoBNOX activity (Mayo, L. A. and Curnutte, J., 1990, Meth. Enzyme. 186: 567-575; Butler, J. et al., 1982, J. Biol. Chem. 257: 10747-10750). The assay consists of 150 μl buffy coats in PBSG buffer (8.06 g NaCl, 0.2 g KCl, 0.18 g Na2HPO4, 0.13 g CaCl2, 0.1 MgCl2, 1.35 g glucose dissolved in 1000 ml deionized water, adjusted to pH 7.4, filtered and stored at 4° C.). Rates were determined using an SLM Aminco DW-2000 spectrophotometer (Milton Roy, Rochester, N.Y.) in the dual wave length mode of operation with continuous measurements over 1 min every 1.5 min. After 45 min, test compounds were added and the reaction was continued for an additional 45 min. After 45 min, a millimolar extinction coefficient of […] was used for reduced ferricytochrome c.
arNOX activity was assayed from measurements of superoxide production based on a standard method where reduction of ferricytochrome c was monitored from the increase in absorbance at 550 nm with reference at 540 nm (Butler et al., 1982). As a further check for the specificity of the apoBNOX activity, 60 units of superoxide dismutase (SOD) were added near the end of the assay to ascertain that the rate returned to base line. Rates were determined over 1 min at intervals of 1.5 min using a SLM Aminco DW 2000 spectrophotometer (Milton Roy, Rochester, N.Y.) in the dual wavelength mode of operation. An extinction coefficient of 19.1 mM^−1 cm^−1 was used for reduced ferricytochrome c.

For a further data set, the target named is T1, recombinant arNOX SF2 (Homo sapiens, UniProt Q99805, F637E).
T1 construct: made in house; host or cells: Escherichia coli BL21 (DE3), pET11a
Briefly: Lipid oxidation catalyzed by H2O2 formed from recombinant arNOX-generated superoxide (SF2). The note with it: SF2 + lecithin + SOD + inhibitor, incubated 2 h; without inhibitor 0.12, without SOD 0.06. It is filed as biochemical. An excerpt:
FIG. 4 illustrates the role of apoBNOX in the oxidation of the apoB protein associated with low density lipoprotein particles and the recognition of the oxidized LDL by macrophages, resulting in the formation of foam cells leading to fatty streaks and atherogenic plaques. In this scheme, the apoBNOX binds selectively to lipoprotein particle-associated apoB and withdraws electrons to form superoxide. The superoxide thus generated is converted to hydrogen peroxide by the action of superoxide dismutase. The hydrogen peroxide thus generated attacks lipids (particularly phosphatidylcholine) of the low density lipoprotein particles to form reactive lipid peroxides that then attack key lysine residues in the apoB. Evidence that superoxide generated by arNOX when converted to hydrogen peroxide is capable of oxidizing phosphatidylcholine is given by the data of Table 2.

Data set [1] can be described thus: Hydrolysis and absorption in rats. It is filed as in vivo. An excerpt: (§1) This last characteristic might be problematic if hydroxytyrosol or tyrosol are pretended to be used in fat-based food products or supplements. Oxidation of hydroxytyrosol and tyrosol clearly affect the stability and preservation of both compounds. The hydroxytyrosol and tyrosol derivatives presented in this invention avoid these two problems. The hydroxyl groups on these derivatives are protected from oxidation by preparing hydroxytyrosol or tyrosol fatty acid esters. When compared to hydroxytyrosol and tyrosol, the hydroxytyrosol and tyrosol fatty acid esters are much more resistant against oxidation. At the same time, depending on the length of the fatty acid chain of the fatty acid esters, their solubility in fat-based food products will be increased. Hydroxytyrosol or tyrosol esters with a wide range of solubilities can be prepared, from totally water-soluble hydroxytyrosol or tyrosol derivatives when acetic acid is used in the formation of the ester to totally oil-soluble hydroxytyrosol or tyrosol derivatives when oleic acid is used in the formation of the ester. The hydroxytyrosol and tyrosol derivatives are hydrolyse in the intestinal tract of rats to their two components, hydroxytyrosol or tyrosol and the fatty acid. […] This implies that, after their hydrolysis, mentioned fatty acid esters can act as antioxidants to reduce or ameliorate diseases with an oxidative stress origin.

Data set [2] in a line: Hydrophilicity / solubility. It is filed as physicochemical.
Source text: as §1

The next data set in a line: Sensitivity to oxidation. The data set is classed as physicochemical.
Source text: as §1

In the case of `COC1=C(OC)C(=O)C(C/C=C(\C)CC/C=C(\C)CC/C=C(\C)CC/C=C(\C)CC/C=C(\C)CC/C=C(\C)CC/C=C(\C)CCC=C(C)C)=C(C)C1=O` [CoQ8], the “inhibition of arNOX activity of aging cells” value (“inhibition … of aging cells” for short) in the data set on arNOX is listed as “inhibited”. Moreover, the “inhibition of apoBNOX” value with apoBNOX is recorded as “relatively ineffective”.

Regarding `COC1=C(OC)C(=O)C(C/C=C(\C)CC/C=C(\C)CC/C=C(\C)CC/C=C(\C)CC/C=C(\C)CC/C=C(\C)CC/C=C(\C)CC/C=C(\C)CCC=C(C)C)=C(C)C1=O` [CoQ9], the “inhibition … of aging cells” value with arNOX is listed as “inhibited”. For the same compound, in the data set with apoBNOX, the “inhibition of apoBNOX” value is “relatively ineffective”.

Turning to `COC1=C(OC)C(=O)C(C/C=C(\C)CC/C=C(\C)CC/C=C(\C)CC/C=C(\C)CC/C=C(\C)CC/C=C(\C)CC/C=C(\C)CC/C=C(\C)CC/C=C(\C)CCC=C(C)C)=C(C)C1=O` [CoQ, coenzyme Q10], the “Lipid oxidation, Relative units” value at recombinant arNOX SF2 came to 0.06 cm. In addition, the “inhibition … of aging cells” value in the data set with arNOX is on record as “inhibited”. Further, the “inhibition of apoBNOX” value in the data set with apoBNOX is reported as “resist inhibition”; with apoBNOX (listed as CoQ10) it was “relatively ineffective”.

Take `OCCc1ccc(O)c(O)c1` [Hydroxytyrosol, hydroxytyrosol]: the absorption entry in data set [1] (rats, after hydrolysis of the esters, detected in plasma and cerebrospinal fluid) is listed as “rapidly absorbed”. Moreover, the hydrophilicity / solubility result in data set [2] was “hydrophilic”.

For the compound `OCCc1ccc(O)cc1` [Tyrosol, 4-hydroxyphenethyl alcohol], the sensitivity to oxidation entry in the data set “Sensitivity to oxidation” was “sensitive to oxidation”. The absorption result in data set [1] (rat, in vivo) is on record as “rapidly absorbed”. Also, the hydrophilicity / solubility result in data set [2] is listed as “hydrophilic”. For the same compound, in the data set with apoBNOX (100 μM tyrosol), the “apoBNOX activity, % inhibition” value is on record as 70%.

In the case of `O=c1cc(-c2ccc(O)cc2)oc2cc(O)cc(O)c12` [apigenin], the “inhibition of apoBNOX” value in the data set on apoBNOX is given as “resist inhibition”.

superoxide dismutase: the “inhibition of apoBNOX” value in the data set on apoBNOX is on record as “resist inhibition; also recorded: resistant to inhibition”.

Source of the values: patent US8465939B2, “Aging-related circulating particle-associated lipoprotein B oxidase (apoBNOX) and inhibitors thereof” (Nox Technologies, Inc., priority 2010, dated 2013).
